{"source": "patent US20230117286A1", "about": "“PHARMACEUTICAL COMPOSITION FOR PREVENTION OR TREATMENT OF NONALCOHOLIC STEATOHEPATITIS” (DONG-A ST CO., LTD., priority 2020, published 2023)", "key": {"[1]": {"tested_on": "mouse model with induced nonalcoholic steatohepatitis", "experiment": "Galectin-3 immunostaining in liver tissues, NASH mice", "assay_type": "in vivo, C57BL/6J mouse", "conditions": "administered alone, compound 1 100 mg/kg/day", "procedure": "(§1) A six-weeks-old male C57BL/6J mouse was fed with a special feed of high fat, high fructose, and high cholesterol (Research Diet, D09100301) for at least 27 weeks, and thus was induced to develop nonalcoholic steatohepatitis. After that, compound 1 was administered alone or in combination so that a daily dose reached 100 mg/kg/day. As the DPPIV inhibitor, evogliptin at 200 mg/kg/day or sitagliptin at 150 mg/kg/day was administered alone or in combination. As the PPAR agonist, elafibranor was administered alone or in combination so as to reach 30 mg/kg/day. As a method of administration alone or in combination, the above-described compound 1, DPPIV inhibitor, and/or PPAR agonist were prepared as a drug-diet admixture and supplied for 8 to 12 weeks.\nTo compare the degree of infiltration of inflammatory cells in liver tissues, an expression level of galectin-3, an indicator of increased expression in activated macrophages, was measured through immunostaining. After that, a ratio of the area stained by the galectin-3 antibody in the unit area was calculated through image analysis so as to evaluate the medicinal efficacy of ameliorating inflammation according to the co-administration."}, "[2]": {"tested_on": "mouse model with induced nonalcoholic steatohepatitis", "experiment": "Blood AST and ALT, NASH mice", "assay_type": "in vivo, C57BL/6J mouse", "conditions": "FIG. 11; compound 1 100 mg/kg/day, evogliptin 200 mg/kg/day, alone or in combination; combination compared to both drugs alone", "procedure": "as §1\nThe mouse model with induced nonalcoholic steatohepatitis was subjected to autopsy, after which plasma was isolated therefrom, so as to quantify aspartate aminotransferase (AST) and alanine aminotransferase (ALT) by using an automatic blood analyzer (Konelab 20i)."}, "[3]": {"tested_on": "human monocyte cell line (THP-1)", "experiment": "Inflammatory cytokine secretion during differentiation of human monocytes into macrophages (PMA, then LPS)", "assay_type": "cell-based", "conditions": "FIG. 12; THP-1, PMA 50 ng/ml 48 hours, LPS 0.5 ng/ml four hours; compound 1 alone", "procedure": "A human monocyte cell line (THP-1, ATCC® TIB-202™) was treated with 50 ng/ml of phorbol 12-myristate 13-acetate (PMA) for 48 hours and differentiated into macrophages, while being treated with compound 1 in combination with elafibranor as a PPAR agonist, firsocostat as an ACC inhibitor, obeticholic acid as a FXR agonist or cenicriviroc as a CCR2/5 dual antagonist, then replaced with a serum-free medium, and then treated with lipopolysaccharides (LPS; 0.5 ng/ml) for four hours, after which […], tumor necrosis factor α (TNFα; R&D Systems, DY210), and C—C motif chemokine ligand 2 (CCL2; R&D Systems, DY279), which are inflammatory cytokines secreted into the medium, were quantified with a commercially available ELISKA kit, so as to evaluate an effect on monocyte differentiation, and the results thereof are shown in FIG. 12."}, "[4]": {"tested_on": "mouse model with induced nonalcoholic steatohepatitis", "experiment": "Relative proportion of lipid droplets in liver tissues (image analysis of HE-stained tissue), NASH mice", "assay_type": "in vivo, C57BL/6J mouse", "conditions": "for relative area of lipid droplets in liver tissues / ratio of fat (lipid droplets area) in liver tissues: compound 1 100 mg/kg/day, alone or in combination; for relative area of lipid droplets in liver tissues: evogliptin 200 mg/kg/day; for ratio of fat (lipid droplets area) in liver tissues: FIG. 5, elafibranor 30 mg/kg/day", "procedure": "as §1\nFor quantitative comparison of fat accumulation in liver tissues, the HE-stained tissues were subjected to an image analysis to calculate a relative proportion of lipid droplets per unit area, thereby evaluating a medicinal efficacy of co-administration."}, "[5]": {"tested_on": "Primary human hepatic stellate cells", "experiment": "Pro-collagen 1a1 expression in TGFβ1-activated primary human hepatic stellate cells", "assay_type": "cell-based", "conditions": "FIG. 13, TGFβ1 5 ng/ml, 18 hours; for protein expression of pro-collagen 1a1 induced by TGFβ1: each drug treated alone", "procedure": "Primary human hepatic stellate cells (ScienCell, #5300) were stabilized for 24 hours, then cultured in a serum-free medium for 24 hours, and then treated with compound 1 in combination with elafibranor as a PPAR agonist, firsocostat as an ACC inhibitor, or obeticholic acid as a FXR agonist together with 5 ng/ml of recombinant […] (TGFβ1), after which the resulting cells were harvested in 18 hours later and an amount of pro-collagen 1a1 in total cell proteins was quantified with a commercialized ELISKA Kit (R&D Systems, DY6220), while an amount of total cell proteins was quantified and corrected by a BCA method, and the results of calculating a concentration response curve of each drug and a concentration (IC30) showing 30% inhibitory activity are shown in FIG. 13.\nWhen compound 1 was treated in combination with the PPAR agonist or the ACC inhibitor, the CI was calculated to be 0.7 and 0.6, which was smaller than 1, thus confirming a synergistic effect. And the CI was calculated to be 1 when treated in combination with the FXR agonist, thus confirming an additive effect."}, "[6]": {"tested_on": "mouse model with induced nonalcoholic steatohepatitis", "experiment": "Plasma inflammation and fibrosis-related proteins (ELISA), NASH mice", "assay_type": "in vivo, C57BL/6J mouse", "conditions": "FIG. 10", "procedure": "as §1\nTo evaluate an effect on concentration of inflammation (CCL2, CXCl10, CXCl2, IL2 and TNFα) and fibrosis-related protein (TIMP1) in plasma, a concentration of CCL2, CXCl10, CXCl2, IL2, TNFα (MSD, K15255D-1) and TIMP1 (R&D Systems, MTM100) proteins in the plasma obtained from the mouse model was quantified by using a commercially available ELISA kit."}, "[7]": {"tested_on": "mouse model with induced nonalcoholic steatohepatitis", "experiment": "NAFLD activity score (HE histology) in mouse model with nonalcoholic steatohepatitis", "assay_type": "in vivo, C57BL/6J mouse", "conditions": "administered alone, compound 1 100 mg/kg/day, compared to before treatment", "procedure": "as §1\nFor a histological examination, liver tissues were isolated through biopsy and autopsy from the mouse model with induced nonalcoholic steatohepatitis prepared above before and after drug administration and were fixed in 10% formalin so as to prepare a paraffin block and obtain a 2 μm thick tissue section. After that, hematoxylin and eosin (HE) stain was performed by using an automatic stainer (Autostainer XL, Leica) in order to confirm an infiltration of inflammatory cells. A ratio of lipid droplets deposited in the stained liver tissues, a degree of infiltration of inflammatory cells and a degree of cell necrosis were expressed as NAFLD activity scores (NAS), and the results thereof are shown in FIGS. 2 and 3."}, "[8]": {"tested_on": "mouse model with induced nonalcoholic steatohepatitis", "experiment": "αSMA immunostaining in liver tissues, NASH mice", "assay_type": "in vivo, C57BL/6J mouse", "conditions": "administered alone, compound 1 100 mg/kg/day", "procedure": "as §1\nTo evaluate the effectiveness on fibrosis, an expression of a smooth muscle actin (αSMA) in a liver tissue section was measured through immunostaining so as to compare the ratio of activated stellate cells. After that, a ratio of the area stained by the αSMA antibody in the unit area was calculated through image analysis."}, "[9]": {"conditions": "FIG. 6, evogliptin 200 mg/kg/day"}, "[10]": {"conditions": "FIG. 7, elafibranor 30 mg/kg/day"}, "[11]": {"conditions": "NASH mice, compound 1 alone 100 mg/kg/day"}, "[12]": {"conditions": "compound 1 100 mg/kg/day alone or combined with sitagliptin 150 mg/kg/day"}, "[13]": {"conditions": "FIG. 2, evogliptin 200 mg/kg/day, drug-diet admixture 8 to 12 weeks"}, "[14]": {"conditions": "FIG. 3, elafibranor 30 mg/kg/day"}, "[15]": {"conditions": "FIG. 8, evogliptin 200 mg/kg/day"}, "[16]": {"conditions": "FIG. 9, elafibranor 30 mg/kg/day"}}, "data": [{"smiles": "CCc1cnc(N2CCC(CCCOc3cc(F)c(-c4noc(C(C)C)n4)c(F)c3)CC2)nc1", "note": "[compound 1, 3-(4-(3-(1-(5-ethylpyrimidin-2-yl)piperidin-4-yl)propoxy)-2,6-difluorophenyl)-5-isopropyl-1,2,4-oxadiazole]", "values": [{"measurement": "expression of galectin-3 in liver tissues", "setting": "[1]; [9]", "result": "significantly reduced"}, {"measurement": "expression of galectin-3 in liver tissues", "setting": "[1]; [10]", "result": "significantly decreased"}, {"measurement": "plasma concentration of ALT", "setting": "[2]", "result": "significantly reduced"}, {"measurement": "plasma concentration of AST", "setting": "[2]", "result": "significantly reduced"}, {"measurement": "CCL2 secretion", "setting": "[3]", "result": "decreased in a concentration-dependent manner"}, {"measurement": "IL-1β secretion", "setting": "[3]", "result": "decreased in a concentration-dependent manner"}, {"measurement": "TNFα secretion", "setting": "[3]", "result": "decreased in a concentration-dependent manner"}, {"measurement": "relative area of lipid droplets in liver tissues", "setting": "[4]; FIG. 4", "result": "significantly reduced"}, {"measurement": "size of lipid droplets in liver tissues", "setting": "[4]; FIG. 4, compound 1 alone 100 mg/kg/day", "result": "decreased"}, {"measurement": "ratio of fat (lipid droplets area) in liver tissues", "setting": "[4]", "result": "significantly reduced"}, {"measurement": "protein expression of pro-collagen 1a1 induced by TGFβ1", "setting": "[5]", "result": "inhibited in a concentration-dependent manner"}, {"measurement": "30% inhibitory concentration (IC30), pro-collagen 1a1", "setting": "[5]; treated alone", "result": 550, "unit": "nM"}, {"measurement": "plasma concentration of CCL2", "setting": "[6]; [11]", "result": "significantly decreased"}, {"measurement": "plasma concentration of CXCl2", "setting": "[6]; [11]", "result": "significantly decreased"}, {"measurement": "plasma concentration of CXCl10", "setting": "[6]; [11]", "result": "significantly decreased"}, {"measurement": "plasma IL2", "setting": "[6]; [12]", "result": "tendency of decreasing"}, {"measurement": "plasma TNFα", "setting": "[6]; [12]", "result": "tendency of decreasing"}, {"measurement": "plasma TIMP1", "setting": "[6]; compound 1 alone 100 mg/kg/day", "result": "significantly decreased"}, {"measurement": "NAFLD activity score (NAS)", "setting": "[7]; [13]", "result": "significantly improved"}, {"measurement": "NAFLD activity score (NAS)", "setting": "[7]; [14]", "result": "significantly improved"}, {"measurement": "expression of αSMA in liver tissues", "setting": "[8]; [15]", "result": "significantly reduced"}, {"measurement": "expression of αSMA in liver tissues", "setting": "[8]; [16]", "result": "significantly reduced"}]}, {"smiles": "CSc1ccc(C(=O)/C=C/c2cc(C)c(OC(C)(C)C(=O)O)c(C)c2)cc1", "note": "[elafibranor, reference compound]", "values": [{"measurement": "expression of galectin-3 in liver tissues", "setting": "[1]; [10]", "result": "no effect of significantly decreasing"}, {"measurement": "ratio of fat (lipid droplets area) in liver tissues", "setting": "[4]", "result": "significantly reduced"}, {"measurement": "protein expression of pro-collagen 1a1 induced by TGFβ1", "setting": "[5]", "result": "relatively low response"}, {"measurement": "NAFLD activity score (NAS)", "setting": "[7]; [14]", "result": "significantly improved"}, {"measurement": "expression of αSMA in liver tissues", "setting": "[8]; [16]", "result": "no effect of significantly reducing"}]}, {"smiles": "CC(C)(C)OC[C@@H]1C(=O)NCCN1C(=O)C[C@H](N)Cc1cc(F)c(F)cc1F", "note": "[evogliptin, reference compound]", "values": [{"measurement": "expression of galectin-3 in liver tissues", "setting": "[1]; [9]", "result": "significantly reduced"}, {"measurement": "plasma concentration of ALT", "setting": "[2]", "result": "significantly reduced"}, {"measurement": "plasma concentration of AST", "setting": "[2]", "result": "significantly reduced"}, {"measurement": "relative area of lipid droplets in liver tissues", "setting": "[4]; FIG. 4", "result": "tendency of decreasing"}, {"measurement": "NAFLD activity score (NAS)", "setting": "[7]; [13]", "result": "insignificant"}, {"measurement": "expression of αSMA in liver tissues", "setting": "[8]; [15]", "result": "significantly reduced"}]}, {"smiles": "COc1ccccc1[C@H](Cn1c(=O)n(C(C)(C)C(=O)O)c(=O)c2c(C)c(-c3ncco3)sc21)OC1CCOCC1", "note": "[firsocostat, reference compound]", "values": [{"measurement": "protein expression of pro-collagen 1a1 induced by TGFβ1", "setting": "[5]", "result": "relatively low response"}]}]}
